Here are results for 3 molecules from publication PMC9535710 (ACS Omega, 2022).

One series has as its system U251 (glioblastoma). Kind of series: SRB cytotoxicity, U251 glioblastoma cells. The class given is cell-based, human. As to conditions: Homo sapiens, U-251, read-out: IC50 U251.
In the next series the test system is K562 (leukemia). Kind of series: SRB cytotoxicity, K562 leukemia cells. The class given is cell-based, human. The note with it: Homo sapiens, K562, read-out: IC50 K562.
The subject of another series is HCT-15 (colon). Kind of series: SRB cytotoxicity, HCT-15 colon cells. The class given is cell-based, human. The note with it: Homo sapiens, HCT-15, read-out: IC50 HCT-15.
In the next series the test system is SKLU-1 (lung). The series can be described thus: SRB cytotoxicity, SKLU-1 lung cells. The class given is cell-based, human. The note with it: Homo sapiens, SK-LU-1, read-out: IC50 SKLU-1.
A short description of series [1]: SRB cytotoxicity, K562 leukemia cells. As to conditions: human, K562 leukemia cells. The format is cell-based, human.
The nature of series [2]: SRB cytotoxicity, HCT-15 colon cells. As to conditions: human, HCT-15 colon tumor cells. The format is cell-based, human.
A short description of series [3]: SRB cytotoxicity, MCF-7 breast cells. The format is cell-based. The note with it: human, MCF-7 breast tumor cells.
Series [4] is described as follows: SRB cytotoxicity, SKLU-1 lung cells. The format is cell-based, human. The note with it: human, SKLU-1 lung tumor cells.
A short description of series [5]: SRB cytotoxicity, U251 glioblastoma cells. As to conditions: human, U251 glioblastoma cells. The format is cell-based, human.
Series [6] can be described thus: SRB cytotoxicity, PC-3 prostate cells. The note with it: human, PC-3 prostate tumor cells. The class given is cell-based.

One may read the IC50 as the concentration that inhibits the measured activity by half. `COc1cc([C@@H]2c3cc4c(cc3[C@@H](O[C@@H]3O[C@@H]5CO[C@@H](C)O[C@H]5[C@H](O)[C@H]3O)[C@H]3COC(=O)[C@H]23)OCO4)cc(OC)c1O` [etoposide, reference compound]: the IC50 turned out to be 2400 ± 200 nM in the series with U251 (glioblastoma), 2200 ± 700 nM with K562 (leukemia), 4800 ± 500 nM with HCT-15 (colon) and 2600 ± 300 nM with SKLU-1 (lung).
What is called inhibition is the drop in the measured response relative to a control, in per cent. Higher therefore signals a response far below the control. For the molecule `CC(C)=CCC[C@@H](C)[C@@H]1CC[C@]2(C)C3=C(CC[C@@]12C)[C@@]1(C)CC[C@H](O)C(C)(C)[C@@H]1CC3` [euphol (2), eupha-8,24-dien-3β-ol], the inhibition at 50 μM in series [1] came to 26.9%; in series [2] it was 2.18%; in [3], 36.6%; in series [4], 4.9%.
Take `C=C(C)[C@@H]1CC[C@]2(C)CC[C@]3(C)[C@H](CC[C@@H]4[C@@]5(C)CC[C@H](O)C(C)(C)[C@@H]5CC[C@]43C)[C@@H]12` [lupeol (5), lupeol]: the inhibition at 50 μM was 27.3% in series [5]; 50.7% in [6]; 48.8% in series [1]; 10.4% in series [2]; 22.3% in series [3]; 13% in [4].
